Laboratory results published in ChEMBL document CHEMBL5346901, “Discovery of potent Plasmodium falciparum protein kinase 6 (PfPK6) inhibitors with a type II inhibitor pharmacophore” (Eur J Med Chem, 2023).
In brackets after ≈: the same amount, converted by molar mass. Activity calls are given as the source filed them. The rule behind the calls is not given here.

Target: Calcium-dependent protein kinase 1 (Plasmodium falciparum) (UniProt P62344)
Test: Inhibition of plasmodium falciparum CDPK1 assessed as remaining activity at 1 uM by Kinomescan method relative to control
Settings: time 2.0 hrs

Sequence of Calcium-dependent protein kinase 1 (Plasmodium falciparum) (P62344 2-524 limits assumed): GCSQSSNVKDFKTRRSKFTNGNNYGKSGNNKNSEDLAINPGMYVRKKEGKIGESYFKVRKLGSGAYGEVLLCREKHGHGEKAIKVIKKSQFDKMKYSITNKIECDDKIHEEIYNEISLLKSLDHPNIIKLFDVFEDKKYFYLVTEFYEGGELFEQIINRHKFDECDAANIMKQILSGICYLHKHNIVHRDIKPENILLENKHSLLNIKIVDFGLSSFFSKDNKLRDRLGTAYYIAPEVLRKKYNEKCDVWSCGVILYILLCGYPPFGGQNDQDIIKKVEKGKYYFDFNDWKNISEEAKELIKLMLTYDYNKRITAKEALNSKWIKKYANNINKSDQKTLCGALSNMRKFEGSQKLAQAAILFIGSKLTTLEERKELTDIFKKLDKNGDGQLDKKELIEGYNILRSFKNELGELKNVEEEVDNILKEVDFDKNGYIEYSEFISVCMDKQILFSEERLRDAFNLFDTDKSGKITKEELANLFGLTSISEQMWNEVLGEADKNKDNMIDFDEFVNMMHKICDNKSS

Question: With `COc1cc2nccc(Oc3ccc(NC(=O)Nc4ccc(CN5CCN(C)CC5)c(C(F)(F)F)c4)c(F)c3)c2cc1OC` as the compound, how does the Activity read?
Answer: Its Activity is 1.6%.

Tested on: HepG2
Test: Cytotoxicity against human HepG2 cells assessed as reduction in cell viability by CellTiter-Glo assay
Type: toxicity, cell-based
Settings: not given

Question: With `COc1cc2nccc(Oc3ccc(NC(=O)Nc4ccc(CN5CCN(C)CC5)c(C(F)(F)F)c4)c(F)c3)c2cc1OC` as the compound, how does the CC50 read?
Answer: Its CC50 is 1000 nM.

Target: T1, Cdk-related protein kinase 6 (Plasmodium falciparum) (UniProt O77239)
T1 sequence (whole entry): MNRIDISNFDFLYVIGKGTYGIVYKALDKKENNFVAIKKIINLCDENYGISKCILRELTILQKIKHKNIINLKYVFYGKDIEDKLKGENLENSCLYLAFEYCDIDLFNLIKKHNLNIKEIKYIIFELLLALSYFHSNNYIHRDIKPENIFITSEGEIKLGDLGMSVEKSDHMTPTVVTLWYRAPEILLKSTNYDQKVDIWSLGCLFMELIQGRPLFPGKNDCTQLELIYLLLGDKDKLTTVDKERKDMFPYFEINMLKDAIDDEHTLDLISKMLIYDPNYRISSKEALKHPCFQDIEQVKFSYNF
Test: Inhibition of plasmodium falciparum PK6 assessed as remaining activity at 1 uM incubated for 2 hrs by luciferin-based luminescence assay relative to control
Settings: not given

Question: With `O=C(Nc1ccc(F)cc1F)Nc1ccc(Oc2ccnc3cc4c(cc23)OCCO4)cc1F` as the compound, how does the Activity read?
Answer: Its Activity is 30%.

Question: For `COc1cc2nccc(Oc3ccc(NC(=O)Nc4ccccc4F)c(F)c3)c2cc1OC`, which Activity is on record?
Answer: The Activity was 1%.

Question: For `O=C(Nc1ccc(F)cc1F)Nc1ccc(Oc2ccnc(Cl)n2)cc1F`, which Activity is on record?
Answer: Its Activity is 98%.

Question: Which Activity does the source give for `O=C(Nc1ccc(F)cc1F)Nc1ccc(Oc2ccncc2)cc1F` here?
Answer: The Activity was 50%.

Question: With `O=C(Nc1ccc(F)cc1F)Nc1ccc(Oc2cnnc3ccccc23)cc1F` as the compound, how does the Activity read?
Answer: The Activity was 100%.

Question: Which Activity does the source give for `COc1cc2ncnc(Oc3ccc(NC(=O)Nc4ccc(F)cc4F)c(F)c3)c2cc1OC` here?
Answer: Its Activity is 6%.

Question: For `O=C(Nc1ccc(F)cc1F)Nc1ccc(Oc2cc(NCc3ccccc3)ncn2)cc1F`, which Activity is on record?
Answer: The Activity was 60%.

Question: For `O=C(Nc1ccc(O)cc1F)Nc1ccc(F)cc1F`, which Activity is on record?
Answer: The Activity was 100%.

Question: With `COc1cc2nccc(Oc3ccc(NC(=O)Nc4ccccc4)cc3)c2cc1OC` as the compound, how does the Activity read?
Answer: Its Activity is 4%.

Question: Which Activity does the source give for `O=C(Nc1ccc(F)cc1F)Nc1ccc(Oc2ccnc3cc4c(cc23)OCO4)cc1F` here?
Answer: The Activity was 28%.

Question: For `COc1cc2nccc(Oc3ccc(NC(=O)Nc4ccc(F)cc4)c(F)c3)c2cc1OC`, which Activity is on record?
Answer: Its Activity is 1%.

Question: For `COc1cc2nccc(Oc3ccc(N)c(F)c3)c2cc1OC`, which Activity is on record?
Answer: Its Activity is 100%.

Question: With `O=C(Nc1ccc(F)cc1F)Nc1ccc(Oc2cc(Cl)ncn2)cc1F` as the compound, how does the Activity read?
Answer: Its Activity is 96%.

Question: Which Activity does the source give for `O=C(Nc1ccc(F)cc1F)Nc1ccc(Oc2ccnc3cc(Cl)ccc23)cc1F` here?
Answer: The Activity was 38%.

Question: With `O=C(Nc1ccc(F)cc1F)Nc1ccc(Oc2ncnc3[nH]ccc23)cc1F` as the compound, how does the Activity read?
Answer: Its Activity is 54%.

Question: With `COc1cc2nccc(Oc3ccc(NC(N)=O)c(F)c3)c2cc1OC` as the compound, how does the Activity read?
Answer: The Activity was 28%.

Question: With `COc1cc2nccc(Oc3ccc(NC(=O)Nc4ccc(F)cc4F)cc3)c2cc1OC` as the compound, how does the Activity read?
Answer: The Activity was 6%.

Question: Which Activity does the source give for `O=C(Nc1ccc(F)cc1F)Nc1ccc(Oc2ncnc3ccsc23)cc1F` here?
Answer: Its Activity is 61%.

Question: For `O=C(Nc1ccc(F)cc1F)Nc1ccc(Oc2ncnc3ccccc23)cc1F`, which Activity is on record?
Answer: The Activity was 83%.

Question: With `N#Cc1cnc2ccccc2c1Oc1ccc(NC(=O)Nc2ccc(F)cc2F)c(F)c1` as the compound, how does the Activity read?
Answer: The Activity was 86%.

Question: With `COc1ccc(NC(=O)Nc2ccc(F)cc2F)c(F)c1` as the compound, how does the Activity read?
Answer: The Activity was 100%.

Question: With `O=C(Nc1ccc(F)cc1F)Nc1ccc(Oc2ccncn2)cc1F` as the compound, how does the Activity read?
Answer: The Activity was 84%.

Question: For `COc1cc2nccc(Oc3ccc(N)cc3)c2cc1OC`, which Activity is on record?
Answer: Its Activity is 95%.

Question: For `O=C(Nc1ccc(F)cc1F)Nc1ccc(Oc2ccnc3[nH]ccc23)cc1F`, which Activity is on record?
Answer: The Activity was 14%.

Question: For `COc1ccc2c(Oc3ccc(NC(=O)Nc4ccc(F)cc4F)c(F)c3)ccnc2c1`, which Activity is on record?
Answer: The Activity was 11%.

Question: Which Activity does the source give for `O=C(Nc1ccc(F)cc1F)Nc1ccc(Oc2ccnc3ccsc23)cc1F` here?
Answer: The Activity was 34%.

Question: Which Activity does the source give for `O=C(Nc1ccc(F)cc1F)Nc1ccc(Oc2ccnc(Cl)c2)cc1F` here?
Answer: Its Activity is 92%.

Question: Which Activity does the source give for `O=C(Nc1ccc(F)cc1F)Nc1ccc(Oc2ncnc3sccc23)cc1F` here?
Answer: The Activity was 80%.

Question: With `COCCOc1cc2nccc(Oc3ccc(NC(=O)Nc4ccc(F)cc4F)c(F)c3)c2cc1OCCOC` as the compound, how does the Activity read?
Answer: Its Activity is 2%.

Question: For `COc1ccc2nccc(Oc3ccc(NC(=O)Nc4ccc(F)cc4F)c(F)c3)c2c1`, which Activity is on record?
Answer: Its Activity is 24%.

Question: For `O=C(Nc1ccc(F)cc1F)Nc1ccc(Oc2ccnc3ccccc23)cc1F`, which Activity is on record?
Answer: Its Activity is 40%.

Question: With `COc1cc2nccc(Oc3cccc(F)c3)c2cc1OC` as the compound, how does the Activity read?
Answer: Its Activity is 84%.

Question: For `O=C(Nc1ccc(F)cc1F)Nc1ccc(Oc2ccnc3sccc23)cc1F`, which Activity is on record?
Answer: Its Activity is 43%.

Question: With `COc1cc2nccc(Oc3ccc(NC(C)=O)c(F)c3)c2cc1OC` as the compound, how does the Activity read?
Answer: The Activity was 26%.

Question: Which Activity does the source give for `COc1cc2nccc(Oc3ccc(NC(=O)Nc4ccccc4)c(F)c3)c2cc1OC` here?
Answer: Its Activity is 1%.

Tested on: not listed separately
Test: Apparent permeability of compound by PAMPA assay
Type: ADME
Settings: not given

Question: For `COc1cc2nccc(Oc3ccc(NC(=O)Nc4ccc(CN5CCN(C)CC5)c(C(F)(F)F)c4)c(F)c3)c2cc1OC`, which Papp is on record?
Answer: The Papp was 2.57 10^-6 cm/s.

Tested on: not listed separately
Test: Kinetic solubility of the compound at pH 7.4
Type: physicochemical
Settings: buffer, read-out: Kinetic_solubility

Question: Which solubility kinetic does the source give for `COc1cc2nccc(Oc3ccc(NC(=O)Nc4ccc(F)cc4F)c(F)c3)c2cc1OC` here?
Answer: Its solubility kinetic is 0.7 µM (≈ 0.329 µg/mL).

Question: Which solubility kinetic does the source give for `COc1cc2nccc(Oc3ccc(NC(=O)Nc4ccc(CN5CCN(C)CC5)c(C(F)(F)F)c4)c(F)c3)c2cc1OC` here?
Answer: Its solubility kinetic is 2.1 µM (≈ 1.29 µg/mL).

Tested on: Plasmodium falciparum
Test: Antimalarial activity against blood stage Plasmodium falciparum 3D7 assessed as reduction in parasite growth incubated for 72 hrs by SYBR Green dye based fluorescence assay
Type: functional, organism-based
Settings: not given

Question: For `COc1cc2nccc(Oc3ccc(NC(=O)Nc4ccc(F)cc4F)c(F)c3)c2cc1OC`, which Activity is on record?
Answer: The Activity was “inactive”.

Question: Which Activity does the source give for `COc1cc2nccc(Oc3ccc(NC(=O)Nc4cccc(Br)c4)c(F)c3)c2cc1OC` here?
Answer: Its Activity is “inactive”.

Question: For `COc1cc2nccc(Oc3ccc(NC(=O)Nc4cccc(OC(F)F)c4)c(F)c3)c2cc1OC`, which Activity is on record?
Answer: The Activity was “inactive”.

Question: With `COc1cc2nccc(Oc3ccc(NC(=O)Nc4cccc(C(C)C)c4)c(F)c3)c2cc1OC` as the compound, how does the Activity read?
Answer: The Activity was “inactive”.

Question: With `COc1cc2nccc(Oc3ccc(NC(=O)Nc4cccc(CN5CCN(C)CC5)c4)c(F)c3)c2cc1OC` as the compound, how does the Activity read?
Answer: The Activity was “inactive”.

Same assay, conditions: 3D7, 72 h

Question: Which EC50 does the source give for `COc1cc2nccc(Oc3ccc(NC(=O)Nc4ccc(CN5CCCCC5)c(OC(F)(F)F)c4)c(F)c3)c2cc1OC` here?
Answer: The EC50 was 310 nM.

Question: Which EC50 does the source give for `CCN(CC)CCCC(C)Nc1c2ccc(Cl)cc2nc2ccc(OC)cc12` (stereo not given) [QUINACRINE] here?
Answer: Its EC50 is 33 nM.

Question: With `COc1cc2nccc(Oc3ccc(NC(=O)Nc4ccc(N(C)C5CCN(C)CC5)c(OC(F)(F)F)c4)c(F)c3)c2cc1OC` as the compound, how does the EC50 read?
Answer: The EC50 was 250 nM.

Question: Which EC50 does the source give for `COc1cc2nccc(Oc3ccc(NC(=O)Nc4ccc(CN5CCN(C)CC5)c(C(F)(F)F)c4)c(F)c3)c2cc1OC` here?
Answer: The EC50 was 110 nM.

Question: Which EC50 does the source give for `COc1cc2nccc(Oc3ccc(NC(=O)Nc4ccc(C=C5CCNCC5)c(C(F)(F)F)c4)c(F)c3)c2cc1OC` here?
Answer: The EC50 was 83 nM.

Question: For `Nc1ncnc2occ(-c3ccc(NC(=O)Nc4cc(C(F)(F)F)ccc4F)cc3)c12` [GW770249X], which EC50 is on record?
Answer: The EC50 was 500 nM.

Question: Which EC50 does the source give for `COc1cc2nccc(Oc3ccc(NC(=O)Nc4ccc(N(C)C5CCN(C)CC5)cc4)c(F)c3)c2cc1OC` here?
Answer: The EC50 was 330 nM.

Question: For `CCN(CC)Cc1ccc(NC(=O)Nc2ccc(Oc3ccnc4cc(OC)c(OC)cc34)cc2F)cc1`, which EC50 is on record?
Answer: The EC50 was 320 nM.

Question: For `CCc1nc(N)nc(N)c1-c1ccc(Cl)cc1` [PYRIMETHAMINE], which EC50 is on record?
Answer: The EC50 was 27 nM.

Question: For `COc1cc2nccc(Oc3ccc(NC(=O)Nc4ccc(N(C)C5CCN(C)CC5)c(C(F)(F)F)c4)c(F)c3)c2cc1OC`, which EC50 is on record?
Answer: Its EC50 is 150 nM.
